Measurements from patent publication US20220033623A1, “CONJUGATES OF HYALURONIC ACID AND AMINOBISPHOSPHONATES AND THE THERAPEUTIC USE THEREOF” (FIDIA FARMACEUTICI S.P.A., priority 2018, published 2022).
Like-named read-outs stand apart in the source and are kept apart here.

Legend:
[1] = Rheological properties: viscoelastic moduli (frequency sweep) after adding CaCl2; assay type: physicochemical; conditions: 20 mg/mL in 0.1 M TRIS pH 7, alendronate 2.4 mg/mL, CaCl2 2 mg/mL, 20° C, 0.1-100 rad/s; FIG. 2
Saos-2 osteoblasts = conditions: for cell viability: 3 days of incubation, % of that of the control, FIG. 4A
Protocol: The cells were then seeded at the concentration of 1×10^4 cells/well in 96-well Multiwell plates (Sarstedt, cat. no. 83,3924, Germany) and divided into three groups:
(§1) 1) a control group, wherein the cells were neither treated nor stimulated;
(§2) Each sample was tested in four replications.

[2] = system: primary bovine chondrocytes; conditions: for cytotoxic effect: 7 days
Protocol: The ability of the conjugate to release alendronate in a controlled way and also to have an effect on cartilage tissue was evaluated by in vitro testing on primary bovine chondrocytes.
as §1, §2

## NCCCC(O)(P(=O)(O)O)P(=O)(O)O [alendronate]
[1]
  viscoelastic moduli G′ (elastic) and G″ (viscous), comparison in words: no effect on rheological behaviour
Saos-2 osteoblasts; Saos-2, 50 μM
  cell viability: < 70%
Saos-2 osteoblasts; Saos-2, 100 μM
  cell viability: < 70%
Saos-2 osteoblasts; Saos-2, 3 versus 7 days
  cytotoxicity as a function of incubation period: increases significantly in proportion to the incubation period
[2]
  onset of the effect on the cells: acts on the primary bovine chondrocytes after only 72 hours of incubation
[2]; 50 μM
  cytotoxic effect: maximum cytotoxic effect
[2]; 100 μM
  cytotoxic effect: maximum cytotoxic effect
